Data: article PMC8341946, “Wheat pathogen Zymoseptoria tritici N-myristoyltransferase inhibitors: on-target antifungal activity and an unusual metabolic defense mechanism” (RSC Chemical Biology, 2020)
Entries after “also recorded” stand apart in the source; their conditions may differ. Read-outs that look alike come from different tables or passages of the source.

Key:
HsNMT1 [1] = details: cited from earlier work; for IC50: Table S1, ref SI refs 1-7 as given with each inhibitor name; for Ki: Table S1, cells marked (Ki), ref SI refs 3, 5, 6 as given with each inhibitor name, read-out: HsNMT1 IC50 (µM), value marked (Ki)
ZtNMTΔ99 [2] = target: T1, ZtNMTΔ99 (Zymoseptoria tritici, UniProt F9XBB7); assay: ZtNMT IC50 assay (CPM, enzymatic); format: biochemical
From the text: As the peptide substrate we used an octapeptide derived from the N-terminus of F9X1I2 (Z. tritici predicted homolog of ADP-ribosylation factor 1, ARF1), which we hypothesized would be natively myristoylated in vivo.
Fig. 1 ZtNMT enzymatic activity and structure. […] The CPM reagent enables fluorogenic readout of the reaction rate based on the generation of coenzyme A thiol. […] (D) ZtNMT homology model generated using Swiss Model[26] based on a reported A. fumigatus NMT X-Ray structure 4UWI[27] was aligned to HsNMT1 (PDB: 5MU6, in transparent grey). […] (E) A map of ligand interactions between docked IMP-1088 and its induced fit generated ZtNMT receptor protein residues.
The assay was adapted from a previous publication.[25] […] Accumulation of fluorescence signal at 470 nm was measured at one-minute intervals during the first 20 minutes of the reaction. Rates of the enzymatic reaction were calculated from the linear range of the resulting fluorescence over time curve using GraphPad Prizm 5. Then, sigmoidal dose–response (variable curve) fitting was applied to the data to obtain IC50 values. The assay was performed with at least 2 replicates, mean and confidence intervals are reported.

ZtNMTΔ99 [3] = target: T1, ZtNMTΔ99; format: biochemical; details: in the presence of 32 μM myristoyl-CoA; read-out: KM(peptide)
Procedure: ZtNMT characterization. KM and Vmax constants measurements were performed at two
ZtNMT concentrations: 100 ng/ml and 200 ng/ml.
B) ZtARF1 Km and Vmax measured
The kinetic constants for both NMT substrates in

Z. tritici = assay: Anti-proliferative EC50 assay (MTS viability); format: cell-based, Zymoseptoria tritici
[4] = test system: Z. tritici myristoylated proteome; assay: TMT-based proteomics of myristate enriched proteins after NMT inhibition; format: cell-based, Zymoseptoria tritici
[5] = test system: NMT activity in live Z. tritici; assay: YnMyr tagging in live Z. tritici, in-gel fluorescence
Procedure: Fig. 2 Inhibition and assessment of myristoylation in vivo. (A) Generalized workflow for identification and quantification of myristoylated proteins. Cells were treated with YnMyr in culture, and cell lysates ligated to multifunctional reagents bearing a TAMRA dye for fluorescent in-gel imaging and/or biotin for affinity enrichment and analysis by proteomics.
YnMyr was used to measure the effect of inhibitor on NMT activity in live Z. tritici.

HsNMT1 [6] = target: HsNMT1; parameters: method as in PMID 29760414; details: estimated; cited from earlier work
[7] = test system: Z. tritici whole proteome; assay: TMT-based proteomics of the whole lysate after NMT inhibition; format: cell-based, Zymoseptoria tritici; details: 8-64 μM, 4 h
Procedure: These changes reflect the acute response mounted by the fungus in response to compound and are relatively substantial considering that they occur following only 4 hours of inhibitor treatment. Limited annotation of Z. tritici genes[43] prompted us to undertake an in-depth analysis using NCBI BLAST+[39] to find closest homologs in S. cerevisiae, one of the most well-annotated yeast genomes available. We performed the search filtering out poor alignment matches (e-value > 0.01) and selected a single best match in the S. cerevisiae proteome for each Z. tritici protein.
Fig. 3 Response of Z. tritici to treatment with NMT inhibitors. […] Data is normalized by subtraction of the row mean values. (B) GO biological process and KEGG term enrichments using Fisher's exact test applied to proteins in Cluster W. (C) GO biological process term enrichments from Fisher's exact test applied to proteins in Cluster Z. GO annotation were assigned to Z. tritici proteins based on S. cerevisiae homolog (BLAST analysis) terms.
0.8 mg of each of the TMTsixplex™ Isobaric labels was dissolved in 41 μl anhydrous acetonitrile and then 8 μl of the solution of a reagent was added to 30 μl of corresponding peptide solution to start the labelling reaction. The solution was stirred at room temperature for 1.5 h. […]

Z. tritici culture = Z. tritici culture viability after 4 h treatment (microscope); format: cell-based, Zymoseptoria tritici; details: for effect on cell viability: 4 h treatment, logarithmic growth phase; for culture phenotype under microscope: 4 h
[8] = Table S1, enzymatic CPM assay, read-out: IC50
[9] = Table S1, viability MTS assay, read-out: EC50

T1 sequence (F9XBB7 entry or part of it, stated change not applied): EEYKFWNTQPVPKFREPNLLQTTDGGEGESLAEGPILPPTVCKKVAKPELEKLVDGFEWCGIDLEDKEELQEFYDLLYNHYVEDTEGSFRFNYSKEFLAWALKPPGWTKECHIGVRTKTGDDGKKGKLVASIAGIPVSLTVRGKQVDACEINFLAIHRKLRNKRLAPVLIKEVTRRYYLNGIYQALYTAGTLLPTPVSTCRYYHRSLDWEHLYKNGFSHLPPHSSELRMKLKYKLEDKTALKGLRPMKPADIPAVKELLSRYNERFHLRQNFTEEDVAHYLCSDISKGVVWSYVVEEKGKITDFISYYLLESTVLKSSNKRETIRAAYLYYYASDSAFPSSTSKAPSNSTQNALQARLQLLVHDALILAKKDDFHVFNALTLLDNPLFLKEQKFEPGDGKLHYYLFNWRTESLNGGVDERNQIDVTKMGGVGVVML

Row | Compound | IC50 (HsNMT1 [1]) [nM] | IC50 (ZtNMTΔ99 [2]; [8]) [nM] | also measured
1 | CNCc1cnc2ccc(-c3ccc(F)cc3OCCc3c(C)nn(C)c3C)cn12 [IMP-1097] | 1.9 | 200 | 
2 | CNCCc1cnc2ccc(-c3ccc(F)cc3OCCc3c(C(=O)N(C)C)nn(C)c3C)cn12 [IMP-1124] | 0.7 | 13 | 
3 | NH2-GLTFSKLF-OH (H-GLTFSKLF-OH) [ZtARF1 peptide, octapeptide substrate derived from the N-terminus of F9X1I2 (Z. tritici ARF1 homolog)] |  |  | Km (ZtNMTΔ99 [3]): 2.73 µM
4 | CNCc1cnc2ccc(-c3ccc(F)cc3OCCc3c(C#N)nn(C)c3C)cn12 [IMP-1195] | < 1 | < 1 | 
5 | Cc1nn(C)c(C)c1CCOc1c(F)cccc1-c1ccc2c(c1)c(CN(C)C)nn2C [IMP-1031] | 4.6 | 16 | EC50 (Z. tritici; [9]): 51000 nM
6 | CNCc1nnc2ccc(-c3ncccc3OCCc3c(C)nn(C)c3C)cn12 [IMP-1093] | 7390 | > 300000 | 
7 | Cc1nn(C)c(C)c1CCOc1cc(F)ccc1-c1ccc2nnc(C3CCCN3)n2c1 (stereo not drawn) [IMP-1090] | 2590 | 22000 | 
8 | Cc1nn(C)c(C)c1CCOc1c(-c2ccc3c(c2)c(CN(C)C)nn3C)ccc(F)c1F [IMP-1088] | < 1 |  | YnMyr tagging of myristoylated proteins ([4]; 64 μM versus DMSO, 4 h): reduced tagging; TC50 (concentration of half-tagging with YnMyr) ([4]; first subset of myristoylated proteins in Cluster 1): 8000 to 16000 nM; TC50 (concentration of half-tagging with YnMyr) ([4]; second subset of myristoylated proteins in Cluster 1): 16000 to 32000 nM; TC50 (concentration of half-tagging with YnMyr) ([4]; third subset of myristoylated proteins in Cluster 1): 32000 to 64000 nM; EC50 (Z. tritici; Fig. 1B, Z. tritici cell viability, MTS, 40 h): 23000 nM; EC50 (Z. tritici; Zymoseptoria tritici, 40 h, Fig. 1B, Z. tritici cell viability, MTS): ~20000 nM; IC50 (ZtNMTΔ99 [2]): 12 nM; TC50 (half maximal concentration of YnMyr tagging) ([5]; 4 h, intensity of most prominent band (ca. 20 kDa), in-gel fluorescence): 14000 ± 1000 nM; effect on YnMyr labeling (in-gel band intensities) ([5]; 4 h with compound and YnMyr, TAMRA fluorescence): dose-dependently reduces labeling; also recorded: reduced YnMyr tagging; Kd (HsNMT1 [6]): < 0.2 nM; whole proteome response [7]: significant dose-dependent changes in the expression of multiple proteins; effect on cell viability (Z. tritici culture): no detectable effect on cell viability
9 | Cc1nn(C)c(C)c1CCOc1c(F)cccc1-c1ccc2ncc(CN(C)C)n2c1 [IMP-1131] | 2.4 | 2400 | 
10 | Cc1c(CCOc2cc(F)ccc2-c2ccc3ncc(CN(C)C)n3c2)c(C(=O)N(C)C)nn1C [IMP-1134] | < 1 | < 1 | EC50 (Z. tritici; [9]): 27000 nM
11 | CNCc1nnc2ccc(-c3ccc(F)cc3OCCc3c(C(F)(F)F)nn(C)c3C)cn12 [IMP-1111] | 6.5 | 700 | 
12 | CNCc1nn(C)c2ccc(-c3ccc(F)c(F)c3OCCc3c(C)nn(C)c3C)cc12 [IMP-1089] | < 1 | 6.7 | EC50 (Z. tritici; [9]): 46000 nM
13 | Cc1nn(C)c(C)c1CCOc1c(F)cccc1-c1ccc2c(c1)c(CN)nn2C [IMP-1034] | 5 | 32 | 
14 | Cc1nn(C)c(C)c1Cc1nnc(-c2cc(Cl)ccc2OC2CCNCC2)o1 [IMP-329] |  | 870 | Ki (HsNMT1 [1]): 0.02 µM; EC50 (Z. tritici; [9]): 280000 nM
15 | Cc1nn(C)c(C)c1NS(=O)(=O)c1c(Cl)cc(-c2ccnc(N3CCNCC3)c2)cc1Cl [IMP-366, reference compound] |  |  | EC50 (Z. tritici; Zymoseptoria tritici, Table S1, viability MTS assay): 110000 nM; IC50 (ZtNMTΔ99 [2]): 50 nM
16 | Cc1c(CCOc2cc(F)ccc2-c2ccc3nnc(C4CNC4)n3c2)c(C(=O)N(C)C)nn1C [IMP-1100] | 1 | 16 | EC50 (Z. tritici; [9]): > 500000 nM
17 | COc1cc(CCOC(=O)c2sc3ccccc3c2OC2CCNCC2)cc(OC)c1 [IMP-277] |  | > 300000 | Ki (HsNMT1 [1]): 0.031 µM
18 | Cc1nn(C)c(C)c1CCOc1cc(F)ccc1-c1ccc2[nH]nc(CN(C)C)c2c1 [IMP-917] | 13 | 160 | 
19 | CNCc1cnc2ccc(-c3ccc(F)cc3OCCc3c(C(N)=O)nn(C)c3C)cn12 [IMP-1179] | 5.6 | 280 | 
20 | CNCc1nnc2ccc(-c3ccc(F)cc3OCCc3c(C(=O)N4CCCC4)nn(C)c3C)cn12 [IMP-1112] | 19.8 | 420 | 
21 | CNCc1nnc2ccc(-c3ccc(F)cc3OCCc3c(C(=O)N(C)C)nn(C)c3C)cn12 [IMP-1094] | 7 | 86 | 
22 | CNCc1nn(C)c2ccc(-c3cccc(F)c3OCCc3c(C)nn(C)c3C)cc12 [IMP-1036] | 16 | 30 | 
23 | CNCCc1cnc2ccc(-c3ccc(F)cc3OCCc3c(CO)nn(C)c3C)cn12 [IMP-1185] | 25.8 | 4000 | 
24 | Cc1nn(C)c(C)c1CCOc1cc(F)ccc1-c1ccc2nnc(C3CNC3)n2c1 [IMP-1091] | 56 | 2100 | 
25 | N[C@H](CC(=O)N1C[C@H](CO)[C@@H](c2ccc(Cl)c(NC(=O)Cc3ccc(F)cc3)c2)C1)Cc1ccc(Cl)cc1 [IMP-162] |  |  | EC50 (Z. tritici; Zymoseptoria tritici, Fig. 1B, Z. tritici cell viability, MTS, 40 h, read-out: EC50): ~20000 nM; EC50 (Z. tritici; Zymoseptoria tritici, Table S1, viability MTS assay, read-out: EC50): 18000 nM; IC50 (ZtNMTΔ99 [2]): 1900 nM; culture phenotype under microscope (Z. tritici culture; 24 μM and 48 μM): phenotype consistent with cell death; culture phenotype under microscope (Z. tritici culture; 96 μM): most cells appear dead; effect on cell viability (Z. tritici culture): kill Z. tritici culture
